# From US20160220573A1, “COMBINATION THERAPIES FOR TREATING CANCERS” (Gilead Sciences, Inc., priority 2015, published 2016)
# Tested on: CLL cells
# Assay: Human CLL Apoptosis Assay
# Assay type: cell-based
# Settings: without HS-5 co-culture
# Procedure: Peripheral blood mononuclear cells (PBMCs) were isolated from primary chronic lymphocytic leukemia (CLL) patients and cultured for 3-5 hours in Lymphocyte Growth Medium (LGM, RPMI 1640, 1 mM Sodium Pyruvate, 10 mM HEPES, pH 7.4, 100 U/mL Penicillin/100 μg/mL Streptomycin, 55 μM β-Mercaptoethanl, 2 mM GlutaMAX, and 10% FBS) at 37° C. with 5% CO2. Cells were then centrifuged at room temperature for 10 minutes and resuspended in an appropriate volume of LGM for plating (maximum cell density=3.12×10^6/ml). Final assay wells were set up in U-bottom 96-well tissue culture plates with HS-5 co-culture (plates were coated with 3×10^4 HS-5 cells in 100 μl overnight at 37° C. prior to the assay) or no co-culture.
# Cell suspensions (80 μL, 2.5×10^5-9.4×10^4) were added to the plate and incubated for 1 hour prior to stimulation with αIgM/αIgG (7.8 μg/well) and αCD40 (4 μg/well). Cells were incubated with compounds for about 66 hours at 37° C. After incubation, the cells were transferred to deeper plates and washed once with 500 μL of 1×PBS^+/+. Cells were resuspended in Invitrogen's aqua Live/Dead reagent according to manufacturer's directions and incubated 30 minutes on ice. Aqua Live/Dead was quenched with an equal volume of PBS^+/+ with 4% FBS (FACS buffer). Cells were centrifuged and labeled with αCD5^−PE, αCD19-BV421 and AnnexinV-APC in a total volume of […] and incubated 30 minutes on ice. After labeling, cells were rinsed twice in FACS buffer and then fixed with BD Fixation buffer for 30 minutes on ice. Cells were rinsed twice with FACS buffer and analyzed.
# For the apoptosis analysis, flow cytometric sampling of 5000-20,000 total events were collected on a BD FACS Canto II instrument using a high throughput screen (HTS) autosampler for analysis of apoptosis. CD5^+/CD19^+ cells were identified and subsequently gated for AnnexinV^+/LiveDead and AnnexinV^+/LiveDead^+ populations.
# Flow cytometric data were extracted to a flow cytometry standard (fcs) file. Average percentages of AnnexinV^+ cells were determined for the positive control and negative wells (no compound). The percentage of AnnexinV^+ cells represented the percentage or levels of apoptosis. Similar results were obtained for CLL cells with HS-5 co-culture.
smiles,measurement,setting,value
"c1cn2cc(-c3ccc4cn[nH]c4c3)nc(Nc3ccc(N4CCOCC4)cc3)c2n1 [Compound A1, 6-(1H-indazol-6-yl)-N-(4-morpholinophenyl)imidazo[1,2-a]pyrazin-8-amine]",Percentage of the AnnexinV^+ cells from CLL patients,"Sample 1, 0 nM Compound B1, 30 nM Compound A1",12%
same,Percentage of the AnnexinV^+ cells from CLL patients,"Sample 1, 0 nM Compound B1, 100 nM Compound A1",12%
same,Percentage of the AnnexinV^+ cells from CLL patients,"Sample 1, 0 nM Compound B1, 300 nM Compound A1",16%
same,Percentage of the AnnexinV^+ cells from CLL patients,"Sample 2, 0 nM Compound B1, 30 nM Compound A1",9%
same,Percentage of the AnnexinV^+ cells from CLL patients,"Sample 2, 0 nM Compound B1, 100 nM Compound A1",12%
same,Percentage of the AnnexinV^+ cells from CLL patients,"Sample 2, 0 nM Compound B1, 300 nM Compound A1",20%
same,Percentage of the AnnexinV^+ cells from CLL patients,"Sample 3, 0 nM Compound B1, 30 nM Compound A1",13%
same,Percentage of the AnnexinV^+ cells from CLL patients,"Sample 3, 0 nM Compound B1, 100 nM Compound A1",15%
same,Percentage of the AnnexinV^+ cells from CLL patients,"Sample 3, 0 nM Compound B1, 300 nM Compound A1",18%
CC1(C)CCC(CN2CCN(c3ccc(C(=O)NS(=O)(=O)c4ccc(NCC5CCOCC5)c([N+](=O)[O-])c4)c(Oc4cnc5[nH]ccc5c4)c3)CC2)=C(c2ccc(Cl)cc2)C1 [Compound B1],Percentage of the AnnexinV^+ cells from CLL patients,"Sample 1, 0.8 nM Compound B1, 0 nM Compound A1",13%
same,Percentage of the AnnexinV^+ cells from CLL patients,"Sample 1, 1.6 nM Compound B1, 0 nM Compound A1",15%
same,Percentage of the AnnexinV^+ cells from CLL patients,"Sample 1, 3.1 nM Compound B1, 0 nM Compound A1",15%
same,Percentage of the AnnexinV^+ cells from CLL patients,"Sample 1, 6.3 nM Compound B1, 0 nM Compound A1",16%
same,Percentage of the AnnexinV^+ cells from CLL patients,"Sample 1, 12.5 nM Compound B1, 0 nM Compound A1",19%
same,Percentage of the AnnexinV^+ cells from CLL patients,"Sample 1, 25 nM Compound B1, 0 nM Compound A1",24%
same,Percentage of the AnnexinV^+ cells from CLL patients,"Sample 1, 50 nM Compound B1, 0 nM Compound A1",31%
same,Percentage of the AnnexinV^+ cells from CLL patients,"Sample 1, 100 nM Compound B1, 0 nM Compound A1",36%
same,Percentage of the AnnexinV^+ cells from CLL patients,"Sample 1, 200 nM Compound B1, 0 nM Compound A1",46%
same,Percentage of the AnnexinV^+ cells from CLL patients,"Sample 2, 0.8 nM Compound B1, 0 nM Compound A1",10%
same,Percentage of the AnnexinV^+ cells from CLL patients,"Sample 2, 1.6 nM Compound B1, 0 nM Compound A1",18%
same,Percentage of the AnnexinV^+ cells from CLL patients,"Sample 2, 3.1 nM Compound B1, 0 nM Compound A1",35%
same,Percentage of the AnnexinV^+ cells from CLL patients,"Sample 2, 6.3 nM Compound B1, 0 nM Compound A1",55%
same,Percentage of the AnnexinV^+ cells from CLL patients,"Sample 2, 12.5 nM Compound B1, 0 nM Compound A1",76%
same,Percentage of the AnnexinV^+ cells from CLL patients,"Sample 2, 25 nM Compound B1, 0 nM Compound A1",89%
same,Percentage of the AnnexinV^+ cells from CLL patients,"Sample 2, 50 nM Compound B1, 0 nM Compound A1",93%
same,Percentage of the AnnexinV^+ cells from CLL patients,"Sample 2, 100 nM Compound B1, 0 nM Compound A1",95%
same,Percentage of the AnnexinV^+ cells from CLL patients,"Sample 2, 200 nM Compound B1, 0 nM Compound A1",97%
same,Percentage of the AnnexinV^+ cells from CLL patients,"Sample 3, 0.8 nM Compound B1, 0 nM Compound A1",16%
same,Percentage of the AnnexinV^+ cells from CLL patients,"Sample 3, 1.6 nM Compound B1, 0 nM Compound A1",21%
same,Percentage of the AnnexinV^+ cells from CLL patients,"Sample 3, 3.1 nM Compound B1, 0 nM Compound A1",33%
same,Percentage of the AnnexinV^+ cells from CLL patients,"Sample 3, 6.3 nM Compound B1, 0 nM Compound A1",50%
same,Percentage of the AnnexinV^+ cells from CLL patients,"Sample 3, 12.5 nM Compound B1, 0 nM Compound A1",69%
same,Percentage of the AnnexinV^+ cells from CLL patients,"Sample 3, 25 nM Compound B1, 0 nM Compound A1",89%
same,Percentage of the AnnexinV^+ cells from CLL patients,"Sample 3, 50 nM Compound B1, 0 nM Compound A1",97%
same,Percentage of the AnnexinV^+ cells from CLL patients,"Sample 3, 100 nM Compound B1, 0 nM Compound A1",99%
same,Percentage of the AnnexinV^+ cells from CLL patients,"Sample 3, 200 nM Compound B1, 0 nM Compound A1",100%
